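How tested: cells in 96-well plates exposed to compound for 48 hours at five concentrations. GI50 = concentration required for 50% inhibition of growth.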 The source made the active and inactive calls. No stated cut-off is given here; in the data, active = GI50 up to about 1.1 µM and inactive = higher.
Tests used:
Test in all cases: DTP human tumour cell line panel, 48 h
[1] = system: IGROV-1
[2] = system: NCI-H522
[3] = system: RXF 393
[4] = system: Malme-3M
[5] = system: T47D
[6] = system: SK-OV-3
[7] = system: ACHN
[8] = system: SK-MEL-2
[9] = system: MCF7
[10] = system: K562
[11] = system: MDA-MB-435
[12] = system: HOP-62
[13] = system: PC-3
[14] = system: MDA-MB-231
[15] = system: CAKI-1
[16] = system: SF-539
[17] = system: HCT-15
[18] = system: 786-0
[19] = system: CCRF-CEM
[20] = system: A498
[21] = system: HCT-116
[22] = system: SNB-19
[23] = system: COLO 205
[24] = system: Hs-578T
[25] = system: SK-MEL-28
[26] = system: DU-145
[27] = system: HOP-92
[28] = system: UACC-62
[29] = system: OVCAR-8
[30] = system: RPMI-8226
[31] = system: SF-268
[32] = system: TK-10
[33] = system: LOX IMVI
[34] = system: SR
[35] = system: OVCAR-4
[36] = system: OVCAR-3
[37] = system: SF-295
[38] = system: HCC 2998
[39] = system: HL-60
[40] = system: A549
[41] = system: NCI-H23
[42] = system: SW-620
[43] = system: NCI-H460
[44] = system: HT-29
[45] = system: OVCAR-5
[46] = system: SN12C
[47] = system: NCI/ADR-RES
[48] = system: SNB-75
[49] = system: EKVX
[50] = system: MDA-N
[51] = system: NCI-H226
[52] = system: UACC-257
[53] = system: UO-31
[54] = system: SK-MEL-5
[55] = system: KM12
[56] = system: U-251
[57] = system: M14
[58] = system: BT-549

CSc1ccc2c(c1)c(CCN)c(C)n2Cc1ccccc1Cl was tested, and the GI50 [1] was 1.61 µM (inactive), the GI50 [2] was 1.5 µM (inactive) and the GI50 [3] was 1.4 µM (inactive). The GI50 [4] was 1.69 µM (inactive), the GI50 [5] was 1.57 µM (inactive) and the GI50 [6] was 2 µM (inactive). For the same compound, the GI50 [7] was 1.69 µM (inactive), the GI50 [8] was 1.8 µM (inactive) and the GI50 [9] was 1.85 µM (inactive). For the same compound, the GI50 [10] was 1.69 µM (inactive), the GI50 [11] was 1.67 µM (inactive) and the GI50 [12] was 1.18 µM (inactive). The GI50 [13] was 1.52 µM (inactive), the GI50 [14] was 1.84 µM (inactive) and the GI50 [15] was 1.95 µM (inactive). For the same compound, the GI50 [16] was 1.37 µM (inactive), the GI50 [17] was 2020 nM and the GI50 [18] was 1.72 µM (inactive). For the same compound, the GI50 [19] was 1.51 µM (inactive), the GI50 [20] was 1.71 µM (inactive) and the GI50 [21] was 1.63 µM (inactive). The GI50 [22] was 1.77 µM (inactive), the GI50 [23] was 1.67 µM (inactive) and the GI50 [24] was 1.67 µM (inactive). For the same compound, the GI50 [25] was 1.75 µM (inactive), the GI50 [26] was 1.66 µM (inactive) and the GI50 [27] was 1.26 µM (inactive). The GI50 [28] was 1.65 µM (inactive), the GI50 [29] was 1.79 µM (inactive) and the GI50 [30] was 1.42 µM (inactive). For the same compound, the GI50 [31] was 1.76 µM (inactive), the GI50 [32] was 1.73 µM (inactive) and the GI50 [33] was 1.83 µM (inactive). For the same compound, the GI50 [34] was 2.42 µM (inactive), the GI50 [35] was 1.73 µM (inactive) and the GI50 [36] was 1.86 µM (inactive). For the same compound, the GI50 [37] was 1.82 µM (inactive), the GI50 [38] was 740 nM (active) and the GI50 [39] was 1.56 µM (inactive). The GI50 [40] was 1.68 µM (inactive), the GI50 [41] was 1.93 µM (inactive) and the GI50 [42] was 1.78 µM (inactive). For the same compound, the GI50 [43] was 1.55 µM (inactive), the GI50 [44] was 1.6 µM (inactive) and the GI50 [45] was 1.85 µM (inactive). For the same compound, the GI50 [46] was 1.58 µM (inactive), the GI50 [47] was 2.03 µM (inactive) and the GI50 [48] was 1.61 µM (inactive). The GI50 [49] was 1.62 µM (inactive), the GI50 [50] was 1.64 µM (inactive) and the GI50 [51] was 1.66 µM (inactive). The GI50 [52] was 1.73 µM (inactive), the GI50 [53] was 1.52 µM (inactive) and the GI50 [54] was 1.72 µM (inactive). For the same compound, the GI50 [55] was 1.82 µM (inactive), the GI50 [56] was 1.66 µM (inactive) and the GI50 [57] was 1.72 µM (inactive). The GI50 [58] was 3.26 µM (inactive).

Source: ChEMBL document CHEMBL1201862, “PubChem BioAssay data set” (2004)
